Data from ChEMBL document CHEMBL1201862, “PubChem BioAssay data set” (2004).
The source made the active and inactive calls.

How the values were obtained:
[1] = luciferase reporter signal suppression in cells – H4 neuroglioma cells, luminescence, dose response (AID 1990); type: functional, cell-based
[2] = Luminescence Cell-Based Dose Response HTS to Identify Inhibitors of 5'UTR Stem-Loop Driven Prion Protein mRNA Translation in H4 Neuroglioblastoma Cells. [Related pubchem assays: 1827 (Project Summary), 1813 (Primary HTS)]; type: functional
[3] = alpha-synuclein stem-loop luciferase translation blockers – H4 neuroglioma cells, luminescence, confirmation (AID 1988); type: functional, cell-based
[4] = molecular target: T1, Polyadenylate-binding protein 1 (Homo sapiens, UniProt P11940); test: MLLE binding blockers, Cy5 peptide tracer – biochemical, fluorescence polarization, Cy5-PAM2 peptide, secondary, miRNA deadenylation inhibitor project, dose response (AID 602260); type: functional; details: read-out: IC50_Mean
T1 sequence (P11940 whole entry, the tested form may be a part): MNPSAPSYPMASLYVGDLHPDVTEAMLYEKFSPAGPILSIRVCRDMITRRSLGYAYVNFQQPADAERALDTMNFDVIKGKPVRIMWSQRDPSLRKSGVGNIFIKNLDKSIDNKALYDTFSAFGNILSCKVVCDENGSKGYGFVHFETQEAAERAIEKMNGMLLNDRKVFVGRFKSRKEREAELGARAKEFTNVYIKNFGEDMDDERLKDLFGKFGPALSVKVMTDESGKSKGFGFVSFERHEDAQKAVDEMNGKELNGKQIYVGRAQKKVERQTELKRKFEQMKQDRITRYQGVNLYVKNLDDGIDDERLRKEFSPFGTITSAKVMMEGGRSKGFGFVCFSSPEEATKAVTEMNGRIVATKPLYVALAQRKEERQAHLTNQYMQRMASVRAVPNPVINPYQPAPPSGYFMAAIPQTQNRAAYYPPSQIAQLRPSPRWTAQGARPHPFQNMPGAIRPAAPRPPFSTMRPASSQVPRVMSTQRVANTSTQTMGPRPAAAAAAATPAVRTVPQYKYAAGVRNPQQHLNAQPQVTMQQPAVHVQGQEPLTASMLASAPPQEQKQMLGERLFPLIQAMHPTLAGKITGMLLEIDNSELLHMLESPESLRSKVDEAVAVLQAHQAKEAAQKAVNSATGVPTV

[5] = molecular target: T1, Polyadenylate-binding protein 1; test: MLLE domain peptide-binding blockers, IC50 – biochemical, fluorescence polarization, FITC-PAM2 peptide, dose response (AID 602259); type: functional; details: read-out: IC50_Mean
[6] = molecular target: T2, Carboxy-terminal domain RNA polymerase II polypeptide A small phosphatase 1 (Homo sapiens, UniProt Q9GZU7); test: CTDSP1 inhibitors, concentration-response, biochemical, absorbance readout, ultra-high-throughput screen actives (AID 540297); type: functional
T2 sequence (Q9GZU7 whole entry): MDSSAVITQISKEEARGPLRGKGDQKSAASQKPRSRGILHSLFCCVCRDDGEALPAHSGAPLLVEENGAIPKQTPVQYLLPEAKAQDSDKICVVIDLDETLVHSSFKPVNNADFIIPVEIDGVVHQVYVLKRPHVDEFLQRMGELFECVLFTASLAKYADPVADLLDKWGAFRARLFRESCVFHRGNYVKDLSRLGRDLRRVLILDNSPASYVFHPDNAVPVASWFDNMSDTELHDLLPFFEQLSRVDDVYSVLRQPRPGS

[7] = molecular target: T3, Protein RecA (Mycobacterium tuberculosis, UniProt P9WHJ3); test: Fluorescence Cell-Free Homogeneous Dose Retest to Identify Inhibitors of RecA-Intein Splicing Activity. [Related pubchem assays (depositor defined):AID2097, AID2223, AID489010, AID492950]; type: functional
T3 sequence (P9WHJ3 whole entry): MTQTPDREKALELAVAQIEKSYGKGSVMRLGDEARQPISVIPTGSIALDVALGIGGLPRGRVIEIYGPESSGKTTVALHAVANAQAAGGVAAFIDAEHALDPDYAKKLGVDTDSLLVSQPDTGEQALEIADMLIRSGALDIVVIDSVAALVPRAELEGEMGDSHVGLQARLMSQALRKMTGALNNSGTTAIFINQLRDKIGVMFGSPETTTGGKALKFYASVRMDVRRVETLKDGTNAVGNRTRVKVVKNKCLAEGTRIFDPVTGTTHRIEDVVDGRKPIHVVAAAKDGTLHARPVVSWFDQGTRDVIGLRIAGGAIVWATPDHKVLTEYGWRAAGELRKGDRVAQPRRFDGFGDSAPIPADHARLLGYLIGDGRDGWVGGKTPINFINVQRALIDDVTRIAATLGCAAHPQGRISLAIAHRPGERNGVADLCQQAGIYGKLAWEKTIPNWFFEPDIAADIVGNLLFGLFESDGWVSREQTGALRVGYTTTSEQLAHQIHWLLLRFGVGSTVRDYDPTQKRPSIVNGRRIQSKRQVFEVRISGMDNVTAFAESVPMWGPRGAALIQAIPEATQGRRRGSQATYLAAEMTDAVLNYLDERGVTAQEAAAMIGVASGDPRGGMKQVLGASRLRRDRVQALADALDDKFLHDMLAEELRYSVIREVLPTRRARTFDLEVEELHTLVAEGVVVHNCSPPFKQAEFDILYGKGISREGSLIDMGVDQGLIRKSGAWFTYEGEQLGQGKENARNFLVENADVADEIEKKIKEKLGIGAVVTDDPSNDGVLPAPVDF

[8] = NIH-3T3 fibroblast cytotoxicity, dose response, cytotoxicity control, cell-based, fluorescence, Alamar Blue, secondary assay (AID 2327); type: functional;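 further: NIH-3T3 mouse fibroblasts cultured with fluconazole at 8 µg/mL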
[9] = fluconazole-exposed Candida albicans growth modulators – fluorescence, retest, confirmation (AID 2467); type: functional, cell-based
[10] = system: H9c2; test: cells; type: functional, cell-based; details: Rattus norvegicus, H9c2, Myocardium;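 further: confirmatory concentration-response retest of ultra-high-throughput screening hits for modulation of myocardial damage; cell death induced by hydrogen peroxide oxidative stress; compound pretreatment for 60 min then peroxide exposure for 2 h; potency is for protecting the cells against peroxide damage rather than for killing them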
[11] = system: Streptococcus sp. 'group A'; test: Streptococcus pyogenes SK(-)GAS viability under kanamycin – luminescence, BacTiterGlo, confirmation, counter-screen for streptokinase expression inhibitor project, dose response (AID 1900); type: functional, organism-based; details: Streptococcus sp. 'group A'
[12] = molecular target: T4, Streptokinase A (Streptococcus pyogenes serotype M1, UniProt P10520); test: viability-normalized secreted streptokinase activity reduction – plasminogen activation absorbance, OD405, dose response (AID 1914); type: functional, Streptococcus pyogenes M1 GAS;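 further: secreted streptokinase activity via plasminogen activation per viability signal from cell pellet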
T4 sequence (P10520 whole entry): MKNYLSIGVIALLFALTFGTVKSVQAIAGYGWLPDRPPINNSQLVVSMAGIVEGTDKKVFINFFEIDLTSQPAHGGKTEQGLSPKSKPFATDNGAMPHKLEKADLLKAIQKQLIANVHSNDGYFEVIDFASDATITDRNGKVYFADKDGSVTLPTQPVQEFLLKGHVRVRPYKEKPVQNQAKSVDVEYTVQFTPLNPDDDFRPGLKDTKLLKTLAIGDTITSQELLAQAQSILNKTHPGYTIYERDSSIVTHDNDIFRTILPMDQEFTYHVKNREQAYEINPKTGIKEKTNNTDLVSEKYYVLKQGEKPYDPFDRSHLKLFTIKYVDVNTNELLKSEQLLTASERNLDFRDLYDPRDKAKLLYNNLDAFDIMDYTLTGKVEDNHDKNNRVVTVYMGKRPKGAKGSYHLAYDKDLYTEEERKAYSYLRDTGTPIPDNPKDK

[13] = system: Streptococcus; test: GAS UMAA2166 growth inhibition – luminescence, BacTiterGlo, counter-screen for streptokinase expression inhibitor project, dose response (AID 1915); type: functional, organism-based; details: Streptococcus;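 further: potency for reduction of bacterial viability or growth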
[14] = Luminescence Cell-Based Dose Retest to Confirm Inhibitors of Cancer Stem Cells. [Related pubchem assays (depositor defined):AID2717, AID2721]; type: functional; details: Homo sapiens
[15] = system: BJ; test: BJ-TERT fibroblast viability loss – cell-based, RAS-independent, luminescence, dose response (AID 1933); type: functional; details: Homo sapiens
[16] = system: BJ; test: cells; type: functional, cell-based; details: Homo sapiens
[17] = system: BJ; test: BJ-TERT-LT-ST fibroblast viability loss – cell-based, RAS-independent, luminescence, dose response (AID 1935); type: functional; details: Homo sapiens;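 further: BJ fibroblasts immortalized with TERT plus LT and ST oncogenes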
[18] = DRD fibroblast viability loss – cell-based, non-viral oncogenic, luminescence, dose response (AID 1934); type: functional; details: Homo sapiens
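Wherever AC50 is given: cells exposed to compound for roughly 70 hours or longer before luminescence read.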

## CCOc1cc(S(=O)(=O)n2cc(-c3ccc(F)cc3)c(N)n2)cc(OCC)c1OCC
[1]
  EC50: 15.8 µM (active)
[2]
  EC50: > 120 µM (not active)
[3]
  EC50: > 120 µM (not active)

## Fc1ccc(-[n+]2nc(Nc3ccccc3)sc2-c2cccc(Cl)c2Cl)cc1
[4]
  IC50: > 66 µM (inactive)
[5]
  IC50: > 66 µM (inactive)

## Cc1ccc(O)c(NC(=S)NC(=O)/C=C/c2ccccc2)c1
[4]
  IC50: > 66 µM (inactive)
[5]
  IC50: > 66 µM (inactive)

## N#CC1=C(N)N=C(SCc2cccc3ccccc23)C(C(N)=O)C12CCCCC2 (centres undefined)
[4]
  IC50: > 66 µM (inactive)
[5]
  IC50: > 66 µM (inactive)

## COc1ccc(/C=C/C(=O)NC(=S)Nc2ccc(S(=O)(=O)Nc3nccnc3OC)cc2)cc1
[4]
  IC50: > 66 µM (inactive)
[5]
  IC50: > 66 µM (inactive)

## O=C(COC(=O)/C=C/c1ccco1)Nc1ccc(F)cc1Cl
[6]
  IC50: 36.6 µM (active)

## O=C(CSC1=NCCS1)Nc1ccccc1F
[4]
  IC50: > 66 µM (inactive)
[5]
  IC50: > 66 µM (inactive)

## COc1ccccc1-c1cnnc(S)n1
[7]
  EC50: 111 µM (active)

## O=C(Nc1ccc(NC(=O)c2cccs2)cc1)c1ccc(Br)o1
[8]
  EC50: > 160 µM (inconclusive)
[9]
  EC50: 2.22 µM (active)
[6]
  IC50: 7.45 µM (active)

## COc1cc2c(C#CCO)c(-c3ccc(C#N)cc3)oc(=O)c2cc1OC
[6]
  IC50: 8.45 µM (active)

## CC(C)C(NC(=O)c1ccccc1)C(=O)NC1=NCCS1 (centres undefined)
[4]
  IC50: > 66 µM (inactive)
[5]
  IC50: > 66 µM (inactive)

## Cc1cc(C(=O)N/N=C/c2cc(Br)ccc2OC(=O)c2ccccc2Cl)[nH]n1
[1]
  EC50: 13.4 µM (active)
[2]
  EC50: 18.8 µM (active)
[3]
  EC50: > 120 µM (not active)
[10]
  IC50: > 79 µM (inactive)

## CNC(=S)N/N=C/c1cn(Cc2ccc(C)cc2)c2ccccc12
[11]
  EC50: 5.29 µM (active)
[12]
  EC50: 74.1 µM (active)
[13]
  EC50: 28 µM (active)
[14]
  AC50: 3.07 µM (active)

## O=C(NCCNCc1ccccc1)c1ccco1
[6]
  IC50: 9.15 µM (active)

## N#C/C(=C\c1cccnc1)c1nc2ccccc2[nH]1
[15]
  EC50: 23.5 µM (active)
[16]
  EC50: > 150 µM (not active)
[17]
  EC50: > 75 µM (not active)
[18]
  EC50: 38 µM (active)
